According to US20120252721A1 (priority 2011, published 2012):

How the values were obtained:
[1] = test system: HCV Con1 subgenomic replicon (GS4.1 cells); experiment: HCV replicon assay (NS5A ELISA, 72 hrs); assay type: cell-based; settings: Hepatitis C virus
Experimental: Huh-7 cells containing HCV Con1 subgenomic replicon (GS4.1 cells) were grown in Dulbecco's Modified Eagle Medium (DMEM) supplemented with 10% fetal bovine serum (FBS), 2 mM L-glutamine, 110 mg/L sodium pyruvate, 1× non-essential amino acids, 100 U/mL penicillin-streptomycin, and 0.5 mg/mL G418 (Invitrogen). For dose-response testing, the cells were seeded in 96-well plates at 7.5×10^3 cells/well in a volume of 50 μL, and incubated at 37° C./5% CO2. Three hours after plating, 50 μL often 2-fold serial dilutions of compounds (highest concentration, 75 μM) were added, and cell cultures were incubated at 37° C./5% CO2 in the presence of 0.5% DMSO. Alternatively, compounds were tested at a single concentration of 15 μM. In all cases, Huh-7 cells lacking the HCV replicon served as negative control. The cells were incubated in the presence of compounds for 72 hrs after which they were monitored for expression of the NS5A protein by enzyme-linked immunosorbent assay (ELISA). For this, the plates were then fixed for 1 min with acetone/methanol (1:1, v/v), washed twice with phosphate-buffered saline (PBS), 0.1% Tween 20, blocked for 1 hr at room temperature with TNE buffer containing 10% FBS and then incubated for 2 hr at 37° C. with the anti-NS5A mouse monoclonal antibody A-236 (ViroGen) diluted in the same buffer. After washing three times with PBS, 0.1% Tween 20, the cells were incubated 1 hr at 37° C. with anti-mouse immunoglobulin G-peroxidase conjugate in TNE, 10% FBS. After washing as described above, the reaction was developed with O-phenylenediamine (Zymed). The reaction was stopped after 30 min with 2 NH2SO4, and absorbance was read at 492 nm using Sunrise Tecan spectrophotometer. EC50 values were determined from the % inhibition versus concentration data using a sigmoidal non-linear regression analysis based on four parameters with Tecan Magellan software.

in vitro = assay type: cell-based; settings: human; GS4.1 cells, cellular viability
Experimental: For cytotoxicity evaluation, GS4.1 cells were treated with compounds as described above and cellular viability was monitored using the Cell Titer 96 AQeous One Solution Cell Proliferation Assay (Promega). CC50 values were determined from the % cytotoxicity versus concentration data with Tecan Magellan software as described above.

For `COC(=O)N[C@H](C(=O)N1CCCC1c1cc(-c2ccc(-c3csc4c(-c5ccc(-c6cnc(C7CCCN7C(=O)[C@@H](NC(=O)OC)C(C)C)[nH]6)cc5)csc34)cc2)[nH]n1)C(C)C` (stereo partly drawn) [Compound A87], the EC50 [1] was under 1 nM and the CC50 (in vitro) was over 75000 nM.
For `COC(=O)N[C@H](C(=O)N1CCCC1c1ncc(-c2ccc(-c3csc4cc(C(=O)OC)[nH]c34)cc2)[nH]1)C(C)C` (stereo partly drawn) [Compound A164], the EC50 [1] was 10 to 100 nM and the CC50 (in vitro) was 10000 to 75000 nM.
Work on `COC(=O)N[C@H](C(=O)N1CCC[C@H]1c1ncc(-c2ccc(-c3cn4cc(NC(=O)[C@@H]5CCCN5C(=O)[C@H](NC(=O)OC)c5ccccc5)nc4s3)cc2)[nH]1)C(C)C` [Compound A30, (S,S,S,R)-[1-(2-{5-[4-(6-{[1-(2-methoxycarbonylamino-2-phenyl-acetyl)-pyrrolidin-2-carbonyl]-amino}-imidazo[2,1-b]thiazol-2-yl)-phenyl]-1H-imidazol-2-yl}-pyrrolidine-1-carbonyl)-2-methyl-propyl]-carbamic acid methyl ester] yielded an EC50 [1] of under 1 nM and a CC50 (in vitro) of over 75000 nM.
For `COC(=O)N[C@H](C(=O)N1CCC[C@H]1c1ncc(-c2ccc(-c3cn4cc(NC(=O)[C@@H]5CCCN5C(=O)[C@H](NC(=O)OC(C)(C)C)c5ccccc5)nc4s3)cc2)[nH]1)C(C)C` [Compound A1, (S,S,S,R)-[1-(2-{5-[4-(6-{[1-(2-tert-butoxycarbonylamino-2-phenyl-acetyl)-pyrrolidine-2-carbonyl]-amino}imidazo[2,1-b]thiazol-2-yl)-phenyl]-1H-imidazol-2-yl}pyrrolidine-1-carbonyl)-2-methyl-propyl]-carbamic acid methyl ester], the EC50 [1] was under 1 nM and the CC50 (in vitro) was over 75000 nM.
`COC(=O)N[C@H](C(=O)N1CCCC1c1nc(-c2ccc(-c3cc4sc(-c5ccc(-c6cnc([C@@H]7CCCN7C(=O)[C@@H](NC(=O)OC)C(C)C)[nH]6)cc5)cc4s3)cc2)c[nH]1)C(C)C` (stereo partly drawn) [Compound A159] gave an EC50 [1] of under 1 nM and a CC50 (in vitro) of over 75000 nM.
`COC(=O)N[C@H](C(=O)N1CCC[C@H]1c1cc(-c2ccc(-c3cn4cc(NC(=O)[C@@H]5CCCN5C(=O)[C@H](NC(=O)OC(C)C)c5ccccc5)nc4s3)cc2)[nH]n1)C(C)C` [Compound A156] gave an EC50 [1] of under 1 nM and a CC50 (in vitro) of over 75000 nM.
Work on `CC(C)(C)OC(=O)N1CCCC1c1ncc(-c2ccc(-c3nc4sccn4c3Cl)cc2)[nH]1` (stereo not drawn) [Compound A161] yielded an EC50 [1] of over 100 nM and a CC50 (in vitro) of over 75000 nM.
`COC(=O)N[C@H](C(=O)N1CCC[C@H]1c1ncc(C#Cc2csc3c(-c4ccc(-c5cnc([C@@H]6CCCN6C(=O)[C@@H](NC(=O)OC)C(C)C)[nH]5)cc4)csc23)[nH]1)C(C)C` [Compound A84, [(S)-1-((S)-2-{4-[4-(6-{2-[(S)-1-((S)-2-methoxycarbonylamino-3-methyl-butyryl)-pyrrolidin-2-yl]-3H-imidazol-4-ylethynyl}-thieno[3,2-b]thiophen-3-yl)-phenyl]-1H-imidazol-2-yl}-pyrrolidine-1-carbonyl)-2-methyl-propyl]-carbamic acid methyl ester] gave an EC50 [1] of under 1 nM and a CC50 (in vitro) of over 75000 nM.
With `COC(=O)N[C@H](C(=O)N1CCCC1c1ncc(-c2ccc(-c3csc4c(-c5cnc(C6CCCN6C(=O)[C@H](NC(=O)OC)C(C)C)[nH]5)csc34)cc2)[nH]1)C(C)C` (stereo partly drawn) [Compound A77] the EC50 [1] was under 1 nM and the CC50 (in vitro) was over 75000 nM.
`COC(=O)N[C@H](C(=O)N1CCC[C@H]1c1ncc(-c2ccc(-c3cn4cc(NC(=O)CNC(=O)[C@H](NC(=O)OC(C)(C)C)c5ccccc5)nc4s3)cc2)[nH]1)C(C)C` [Compound A148] showed an EC50 [1] of 1 to 10 nM and a CC50 (in vitro) of over 75000 nM.
`COC(=O)NC(C(=O)N1CCCC1c1ncc(-c2cn3cc(-c4ccc(-c5cnc([C@@H]6CCCN6C(=O)[C@H](NC(=O)OC)c6ccccc6)[nH]5)cc4)nc3s2)[nH]1)c1ccccc1` (stereo partly drawn) [Compound A60] gave an EC50 [1] of under 1 nM and a CC50 (in vitro) of over 75000 nM.
`COC(=O)N[C@H](C(=O)N1CCCC1c1ncc(-c2ccc(-c3cc4sc(Br)cc4s3)cc2)[nH]1)C(C)C` (stereo partly drawn) [Compound A168] showed an EC50 [1] of 10 to 100 nM and a CC50 (in vitro) of 10000 to 75000 nM.
In the case of `COC(=O)N[C@H](C(=O)N1CCC[C@H]1C(=O)Nc1cn2cc(-c3ccc(-c4cnc([C@@H]5CCCN5C(=O)[C@@H](NC(=O)OC)C(C)C)[nH]4)cc3)sc2n1)C(C)C` [Compound A2, (S,S,S,S)-(1-{2-[2-(4-{2-[1-(2-methoxycarbonylamino-3-methyl-butyryl)-pyrrolidin-2-yl]-3H-imidazol-4-yl}-phenyl)-imidazo[2,1-b]thiazol-6-ylcarbamoyl]-pyrrolidine-1-carbonyl}-2-methyl-propyl)-carbamic acid methyl ester], the EC50 [1] is reported as 1 to 10 nM and the CC50 (in vitro) is reported as 10000 to 75000 nM.
In the case of `COC(=O)N[C@H](C(=O)N1CCC[C@H]1c1ncc(-c2csc3c(-c4cnc([C@@H]5CCCN5C(=O)[C@@H](NC(=O)OC)C(C)C)[nH]4)csc23)[nH]1)C(C)C` [Compound A82, ((S)-1-{(S)-2-[5-(6-{2-[(S)-1-((S)-2-methoxycarbonylamino-3-methyl-butyryl)-pyrrolidin-2-yl]-3H-imidazol-4-yl}-thieno[3,2-b]thiophen-3-yl)-1H-imidazol-2-yl]-pyrrolidine-1-carbonyl}-2-methyl-propyl)-carbamic acid methyl ester], the EC50 [1] is reported as under 1 nM and the CC50 (in vitro) is reported as 10000 to 75000 nM.
In the case of `COC(=O)N[C@H](C(=O)N1CCCC1c1ncc(-c2ccc(-c3ccc(-c4nc5sccn5c4Cl)cc3)cc2)[nH]1)C(C)C` (stereo partly drawn) [Compound A154], the EC50 [1] is reported as 10 to 100 nM and the CC50 (in vitro) is reported as 10000 to 75000 nM.
For `COC(=O)N[C@H](C(=O)N1CCCC1c1nc(-c2ccc(-c3c(C(=O)OC)[nH]c4c(-c5ccc(-c6cnc(C7CCCN7C(=O)[C@@H](NC(=O)OC)C(C)C)[nH]6)cc5)csc34)cc2)c[nH]1)C(C)C` (stereo partly drawn) [Compound A163], the EC50 [1] was under 1 nM and the CC50 (in vitro) was over 75000 nM.
Work on `COC(=O)N[C@H](C(=O)N1CCC[C@H]1C(=O)Nc1cn2cc(-c3ccc(NC(=O)CNC(=O)[C@H](NC(=O)OC(C)(C)C)c4ccccc4)cc3)sc2n1)C(C)C` [Compound A147] yielded an EC50 [1] of 10 to 100 nM and a CC50 (in vitro) of over 75000 nM.
Compound `CC(C)(C)OC(=O)N1CCCC1c1nc(-c2ccc(-c3cn4cc(-c5ccc(-c6cnc([C@@H]7CCCN7C(=O)OC(C)(C)C)[nH]6)cc5)sc4n3)cc2)c[nH]1` (stereo partly drawn) [Compound A157] has an EC50 [1] of 10 to 100 nM and a CC50 (in vitro) of over 75000 nM.
`COC(=O)N[C@@H](C(=O)N1CCC[C@H]1C(=O)Nc1ccc(C#Cc2cn3cc(NC(=O)[C@@H]4CCCN4C(=O)[C@H](NC(=O)OC)c4ccccc4)nc3s2)cc1)c1ccccc1` [Compound A80] gave an EC50 [1] of under 1 nM and a CC50 (in vitro) of over 75000 nM.
In the case of `COC(=O)N[C@H](C(=O)N1CCCC1c1ncc(-c2ccc(-c3csc4c(-c5cnc(C6CCCN6C(=O)OCc6ccccc6)[nH]5)csc34)cc2)[nH]1)C(C)C` (stereo partly drawn) [Compound A49], the EC50 [1] is reported as under 1 nM and the CC50 (in vitro) is reported as over 75000 nM.
In the case of `COC(=O)N[C@H](C(=O)N1CCCC1c1ncc(-c2cn3cc(-c4ccc(-c5cnc([C@@H]6CCCN6C(=O)[C@@H](NC(=O)OC)C(C)C)[nH]5)cc4)nc3s2)[nH]1)C(C)C` (stereo partly drawn) [Compound A7], the EC50 [1] is reported as under 1 nM and the CC50 (in vitro) is reported as over 75000 nM.
Compound `COC(=O)N[C@H](C(=O)N1CCC[C@H]1C(=O)Nc1cn2cc(-c3cccc(NC(=O)[C@@H]4CCCN4C(=O)[C@H](NC(=O)OC)c4ccccc4)c3)sc2n1)C(C)C` [Compound A149] has an EC50 [1] of 10 to 100 nM and a CC50 (in vitro) of 10000 to 75000 nM.
For `COC(=O)N[C@H](C(=O)N1CCCC1c1ncc(-c2ccc(-c3csc4c(-c5cnc(C6CCCN6C(=O)[C@@H](NC(=O)OC(C)(C)C)C(C)C)[nH]5)csc34)cc2)[nH]1)C(C)C` (stereo partly drawn) [Compound A76], the EC50 [1] was under 1 nM and the CC50 (in vitro) was over 75000 nM.
For `COC(=O)N[C@H](C(=O)N1CCCC1c1nc(-c2ccc(-c3cn4cc(-c5ccc(-c6cnc([C@@H]7CCCN7C(=O)[C@@H](NC(=O)OC)C(C)C)[nH]6)cc5)sc4n3)cc2)c[nH]1)C(C)C` (stereo partly drawn) [Compound A93], the EC50 [1] was under 1 nM and the CC50 (in vitro) was over 75000 nM.
With `COC(=O)N[C@H](C(=O)N1CCCC1c1ncc(-c2cn3cc(-c4ccc(Cl)cc4)sc3n2)[nH]1)C(C)C` (stereo partly drawn) [Compound A153] the EC50 [1] was 10 to 100 nM and the CC50 (in vitro) was 10000 to 75000 nM.
Work on `COC(=O)N[C@H](C(=O)N1CCC[C@H]1c1ncc(-c2ccc(-c3cn4cc(NC(=O)[C@@H]5CCCN5C(=O)[C@H](NC(=O)OC(C)C)c5ccccc5)nc4s3)cc2)[nH]1)C(C)C` [Compound A56] yielded an EC50 [1] of under 1 nM and a CC50 (in vitro) of over 75000 nM.
`COC(=O)N[C@H](C(=O)N1CCCC1c1ncc(-c2csc3c(-c4ccc(-c5cnc(C6CCCN6C(=O)[C@@H](NC(=O)OC)C(C)C)[nH]5)cc4)csc23)[nH]1)c1ccccc1` (stereo partly drawn) [Compound A78] showed an EC50 [1] of under 1 nM and a CC50 (in vitro) of over 75000 nM.
Compound `COC(=O)N[C@H](C(=O)N1CCC[C@H]1c1ncc(-c2ccc(-c3cn4cc(-c5cnc(C6CCCN6C(=O)[C@@H](NC(=O)OC(C)(C)C)c6ccccc6)[nH]5)nc4s3)cc2)[nH]1)C(C)C` (stereo partly drawn) [Compound A33] has an EC50 [1] of under 1 nM and a CC50 (in vitro) of over 75000 nM.
Work on `CC(C)(C)OC(=O)N1CCCC1c1ncc(-c2ccc(-c3cn4ccsc4n3)cc2)[nH]1` (stereo not drawn) [Compound A167] yielded an EC50 [1] of over 100 nM.
